Measured values reported in publication PMC11765512 (International Journal of Molecular Sciences, 2025).

Tests used:
HEK-293T cells = test: CCK-8 cytotoxicity, HEK-293T; type: cell-based, Human; details: for Survival Rate (%) HEK-293T: 50 μg/mL, 48 h, CCK-8
Experimental: (§1) African green monkey kidney cells (Vero), Human Hepatocellular Carcinoma Cells (Huh-7), and Human Embryonic Kidney 293T (HEK-293T) cells were maintained in our laboratory. Cells were cultured in Dulbecco’s Modified Eagle’s Medium (DMEM, Hyclone, Logan, UT, USA) containing 10% fetal bovine serum (FBS, Gibco, Waltham, MA, USA) at 37 °C under 5% CO2 in a humidified environment.
(§2) The cytotoxicity of compounds against Vero, Huh-7, and HEK-293T cells was detected using the Cell Counting Kit-8. Briefly, the target cells were cultured at a density of 8000 cells per well in a 96-well plate containing DMEM enriched with 10% FBS. The cells were allowed to attach overnight, and the medium was replaced with a fresh serum-free DMEM containing 50 µg/mL of compounds. The cell viability was measured at 48 h post-drug treatment by the addition of the CCK-8 reagent (Biosharp, Hefei, Anhui, China), followed by incubation for 4 h. Finally, the absorbance of the cell culture was measured at 450 nm using a microplate reader (PerkinElmer, Waltham, MA, USA). The background absorbance of the blank media was also measured and subtracted from the sample reading. This experiment was repeated 3 times for each group. The obtained results were normalized to that of the control sample, which represented a cell viability of 100%.

SARS-CoV-2 S-RBD = SARS-CoV-2 S-RBD (Severe acute respiratory syndrome coronavirus 2, UniProt P0DTC2); test: biochemical; type: binding
ACE2-S-RBD interaction = ACE2-S-RBD interaction (Severe acute respiratory syndrome coronavirus 2, UniProt P0DTC2); type: binding, SARS-CoV-2
Vero cells = test: CCK-8 cytotoxicity, Vero; type: cell-based, African green monkey; details: for Survival Rate (%) Vero: 50 μg/mL, 48 h, CCK-8
Experimental: as §1, §2

[1] = test system: SARS-CoV-2 pseudovirus entry into HEK-293T-hACE2 cells; test: microbe, parasite or virus in culture; type: cell-based
ACE2 = ACE2 (Homo sapiens, UniProt Q9BYF1); test: SPR binding to immobilised ACE2
Chain of ACE2 (Q9BYF1 18-805): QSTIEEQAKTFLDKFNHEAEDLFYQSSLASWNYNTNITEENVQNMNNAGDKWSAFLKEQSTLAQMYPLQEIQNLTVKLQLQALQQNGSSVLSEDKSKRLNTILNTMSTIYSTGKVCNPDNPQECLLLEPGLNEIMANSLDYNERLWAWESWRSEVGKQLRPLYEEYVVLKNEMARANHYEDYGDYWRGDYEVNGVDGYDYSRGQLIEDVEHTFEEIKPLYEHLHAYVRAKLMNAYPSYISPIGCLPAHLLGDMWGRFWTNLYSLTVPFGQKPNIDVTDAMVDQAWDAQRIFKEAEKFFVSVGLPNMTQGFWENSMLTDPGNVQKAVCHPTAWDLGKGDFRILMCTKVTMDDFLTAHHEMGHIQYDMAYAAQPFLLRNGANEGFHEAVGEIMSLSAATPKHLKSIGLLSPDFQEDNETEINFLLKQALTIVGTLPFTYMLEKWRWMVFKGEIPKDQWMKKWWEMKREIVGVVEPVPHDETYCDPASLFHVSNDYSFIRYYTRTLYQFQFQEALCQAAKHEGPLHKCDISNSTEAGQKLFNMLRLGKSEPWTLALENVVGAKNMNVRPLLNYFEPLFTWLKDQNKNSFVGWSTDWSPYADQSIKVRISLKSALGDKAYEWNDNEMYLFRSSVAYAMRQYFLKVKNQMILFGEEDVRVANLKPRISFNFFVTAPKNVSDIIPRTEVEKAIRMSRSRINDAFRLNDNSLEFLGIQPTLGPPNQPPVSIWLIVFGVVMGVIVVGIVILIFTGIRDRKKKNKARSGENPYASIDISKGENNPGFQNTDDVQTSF

AH109 (pAD-T+pBD-53) = target: T1, AH109 (pAD-T+pBD-53) (UniProt P02340+P03070); test: Y2H growth inhibition (MIC) of control strain AH109 (pAD-T+pBD-53); type: cell-based, yeast; details: SD/-Leu/-Trp/-His/-Ade dropout medium, 48 h
T1 construct: expressed in transfected cells; host or cells: yeast reporter strain AH109 carrying pAD-T and pBD-53
T1 sequence (P03070 87-708 limits assumed): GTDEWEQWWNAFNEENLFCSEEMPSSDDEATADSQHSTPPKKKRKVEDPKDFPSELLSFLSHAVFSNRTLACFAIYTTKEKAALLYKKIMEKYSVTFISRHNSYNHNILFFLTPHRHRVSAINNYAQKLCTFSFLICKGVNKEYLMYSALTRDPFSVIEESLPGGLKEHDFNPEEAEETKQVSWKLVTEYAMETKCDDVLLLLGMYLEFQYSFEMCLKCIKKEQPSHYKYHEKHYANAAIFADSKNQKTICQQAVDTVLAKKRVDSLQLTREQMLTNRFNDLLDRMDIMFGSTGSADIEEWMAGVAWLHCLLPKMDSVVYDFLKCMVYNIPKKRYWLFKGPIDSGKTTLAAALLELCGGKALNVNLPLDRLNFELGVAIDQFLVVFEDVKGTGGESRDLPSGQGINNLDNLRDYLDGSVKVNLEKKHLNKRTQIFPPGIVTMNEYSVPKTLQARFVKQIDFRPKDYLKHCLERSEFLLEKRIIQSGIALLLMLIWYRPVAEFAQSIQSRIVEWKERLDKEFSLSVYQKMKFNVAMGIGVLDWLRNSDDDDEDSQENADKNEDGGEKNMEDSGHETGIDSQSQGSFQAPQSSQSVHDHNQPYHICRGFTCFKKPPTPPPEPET
T1 sequence (P02340 72-390 limits assumed): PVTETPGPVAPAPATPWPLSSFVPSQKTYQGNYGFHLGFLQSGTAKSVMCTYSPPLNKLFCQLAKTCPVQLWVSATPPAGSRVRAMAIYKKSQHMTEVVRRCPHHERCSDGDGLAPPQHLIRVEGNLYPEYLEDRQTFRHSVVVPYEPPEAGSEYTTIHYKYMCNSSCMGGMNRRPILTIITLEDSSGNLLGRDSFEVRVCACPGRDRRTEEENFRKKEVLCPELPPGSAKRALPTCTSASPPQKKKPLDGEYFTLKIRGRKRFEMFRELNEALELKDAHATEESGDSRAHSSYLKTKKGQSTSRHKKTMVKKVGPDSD
Experimental: The Chemdiv screening compound library used for HTS assay in this research is a combination of synthetic compounds from Enamine (Kyiv, Ukraine) and Life Chemicals Inc. (Burlington, ON, Canada), which can be purchased from Shanghai Topscience Biotechnology Co., Ltd., China. The compounds were stocked at 10 mg/mL in DMSO and used for the screening assays as described. […] Next, 199 μL of the diluted culture and 1 μL of tested compounds (the final concentration was 50 μg/mL) or DMSO were added into each well. […] The final concentrations of the compounds ranged from 100 μg/mL to 0.78 μg/mL with 2-fold dilutions between concentrations.

[2] = test system: AH109 (pAD-S-RBD+pBD-ACE2) cells; test: β-gal activity, ONPG assay in Y2H strain; type: cell-based, yeast
Experimental: The ONPG assay was conducted following the protocol of the β-gal activity quantitative detection kit (GENMED S[…]. USA, Arlington, MA, USA). The principle is based on the chemical reaction that the colorless substrate ONPG can be hydrolyzed by β-gal to generate o-nitrophenol (ONP) with a bright-yellow appearance. Briefly, cells were pelleted in Eppendorf® tubes and resuspended in Z-buffer. Chloroform and 0.2% SDS were added to the cells in the tubes and mixed by briefly vortexing, followed by incubation at 28 °C for 5 min. Next, the ONPG solution was added for further incubation. The reaction was terminated after 10 min for p53-T and after 25 min for all other samples by the addition of chilled Na2CO3. Absorbance was recorded at 420 nm. Results were normalized against the cell density and incubation time using the following formula: U=OD420sample−OD420blank/OD600×t×V
Here, ‘t’ represents the incubation time duration, measured in min, while ‘V’ denotes the volume of the cell cultures utilized for the assay, expressed in mL. The experiments were repeated three times.

[3] = test system: SARS-CoV-2 S-mediated cell–cell fusion (HEK-293T/SARS-CoV-2-S/EGFP with Vero); type: cell-based
Huh-7 cells = test: CCK-8 cytotoxicity, Huh-7; type: cell-based, Human; details: for Survival Rate (%) Huh-7: 50 μg/mL, 48 h, CCK-8
Experimental: as §1, §2

S-RBD+ACE2 complex = S-RBD+ACE2 complex (Severe acute respiratory syndrome coronavirus 2, UniProt P0DTC2); set-up: species or system SARS-CoV-2
[4] = Severe acute respiratory syndrome-related coronavirus, 18 h, read-out: Inhibition rate of pseudovirus entry

**Q.** How did the “Survival Rate (%) HEK-293T” value (HEK-293T cells) turn out when O=C(c1ccc(N2CCCCS2(=O)=O)cc1)N1CCN(C(=O)c2ccco2)CC1 [IMB-1C] was run?
**A.** Its value is 88%.

**Q.** What about the “Effect on cell proliferation of HEK-293T” value (HEK-293T cells; up to 50 µg/mL for 48 h) of the same molecule?
**A.** The value was “did not affect”.

**Q.** What about the Kd (SARS-CoV-2 S-RBD) of the same molecule?
**A.** The Kd was 1060 nM.

**Q.** And the “SPR signal of ACE2 binding to S-RBD” value (ACE2-S-RBD interaction)?
**A.** Its value is “the signal value decreased”.

**Q.** What about the “Survival Rate (%) Vero” value (Vero cells) of the same molecule?
**A.** The value was 105%.

**Q.** What about the “Effect on cell proliferation of Vero” value (Vero cells; up to 50 µg/mL for 48 h) of the same molecule?
**A.** The value was “did not affect”.

**Q.** And the “Inhibition of pseudovirus entry (in words)” value [1]?
**A.** Its value is “concentration-dependent inhibition”.

**Q.** What about the inhibition at 10 µg/mL [1, 4] of the same molecule?
**A.** The inhibition at 10 µg/mL was 42.5%.

**Q.** And the inhibition at 20 µg/mL [1, 4]?
**A.** Its inhibition at 20 µg/mL is 68.1%.

**Q.** What about the Kd (ACE2) of the same molecule?
**A.** Its Kd is 1110 nM.

**Q.** And the “MIC against AH109 (pAD-T+pBD-53)” value (AH109 (pAD-T+pBD-53))?
**A.** Its value is 3.125 μg/mL.

**Q.** What about the “Concentration showing clear inhibition of β-gal activity” value [2] of the same molecule?
**A.** The value was 0.39 µg/mL.

**Q.** What about the Syncytium formation [3] of the same molecule?
**A.** The Syncytium formation was “somewhat blocked in a dose-dependent manner”.

**Q.** And the “Survival Rate (%) Huh-7” value (Huh-7 cells)?
**A.** The value was 122%.

**Q.** What about the “Effect on cell proliferation of Huh-7” value (Huh-7 cells; up to 50 µg/mL for 48 h) of the same molecule?
**A.** Its value is “did not affect”.

**Q.** What about the “Decrease of β-fold content” value (S-RBD+ACE2 complex) of the same molecule?
**A.** Its value is 9.46%.

**Q.** What about the “Increase of α-helix content” value (S-RBD+ACE2 complex) of the same molecule?
**A.** Its value is 6.85%.

**Q.** What about the “Secondary Structure Content (%) Random” value (S-RBD+ACE2 complex) of the same molecule?
**A.** Its value is 32.93%.

**Q.** And the “Secondary Structure Content (%) α-Helix” value (S-RBD+ACE2 complex)?
**A.** Its value is 13.12%.

**Q.** And the “Secondary Structure Content (%) β-Fold” value (S-RBD+ACE2 complex)?
**A.** The value was 42.07%.

**Q.** And the “Secondary Structure Content (%) β-Turn” value (S-RBD+ACE2 complex)?
**A.** Its value is 15.97%.

**Q.** How did the “Survival Rate (%) HEK-293T” value (HEK-293T cells) turn out when Cc1ccc(N(Sc2ccc(Cl)cc2)C2C=CS(=O)(=O)C2)cc1 (stereo not shown) [IMB-4A] was run?
**A.** Its value is 18%.

**Q.** And the “Survival Rate (%) Vero” value (Vero cells)?
**A.** The value was 71%.

**Q.** What about the “Inhibition of pseudovirus entry (in words)” value [1] of the same molecule?
**A.** Its value is “could not be observed”.

**Q.** And the “MIC against AH109 (pAD-T+pBD-53)” value (AH109 (pAD-T+pBD-53))?
**A.** The value was 12.5 μg/mL.

**Q.** What about the “Concentration showing clear inhibition of β-gal activity” value [2] of the same molecule?
**A.** The value was 6.25 µg/mL.

**Q.** What about the “Survival Rate (%) Huh-7” value (Huh-7 cells) of the same molecule?
**A.** The value was 25%.

**Q.** CC(C)CCC[C@@H](C)[C@H]1CC[C@H]2[C@@H]3CC[C@H]4C[C@@H](O[C@@H]5O[C@H](COS(=O)(=O)O)[C@@H](O[C@H]6O[C@H](COS(=O)(=O)O)[C@@H](O[C@H]7O[C@H](COS(=O)(=O)O)[C@@H](O[C@H]8O[C@H](COS(=O)(=O)O)[C@@H](OS(=O)(=O)O)[C@H](OS(=O)(=O)O)[C@H]8OS(=O)(=O)O)[C@H](OS(=O)(=O)O)[C@H]7OS(=O)(=O)O)[C@H](OS(=O)(=O)O)[C@H]6OS(=O)(=O)O)[C@H](OS(=O)(=O)O)[C@H]5OS(=O)(=O)O)CC[C@]4(C)[C@H]3CC[C@]12C [Pixatimod, reference compound] was tested. Which “MIC against AH109 (pAD-T+pBD-53)” value (AH109 (pAD-T+pBD-53)) did it give?
**A.** Its value is 6.25 μg/mL.
